Measured values taken from ChEMBL document CHEMBL1201862, “PubChem BioAssay data set” (2004).
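Results reflect a 48-hour exposure of cells in 96-well plates to compound at five concentrations. GI50: concentration for 50% inhibition of growth.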 Calls of active or inactive are those of the source. Cut-off read from the data, not from the text of the source: active = GI50 up to about 1.1 µM and inactive = higher.

Experiments:
Assay in all cases: inhibition of tumour cell growth, NCI panel, 48 h
SF-268 = tested on: SF-268
NCI-H226 = tested on: NCI-H226
HOP-92 = tested on: HOP-92
RPMI-8226 = tested on: RPMI-8226
SNB-75 = tested on: SNB-75
SF-295 = tested on: SF-295
NCI-H460 = tested on: NCI-H460
UACC-257 = tested on: UACC-257
OVCAR-4 = tested on: OVCAR-4
SK-MEL-5 = tested on: SK-MEL-5
SF-539 = tested on: SF-539
UO-31 = tested on: UO-31
TK-10 = tested on: TK-10
K562 = tested on: K562
OVCAR-5 = tested on: OVCAR-5
SK-OV-3 = tested on: SK-OV-3
RXF 393 = tested on: RXF 393

Measured: GI50

CCNC(=O)OCc1c(COC(=O)NCC)c(-c2ccc(Cl)c(Cl)c2)n2c1CCC2
inactive: SF-268 6.55 µM | NCI-H226 1.75 µM | HOP-92 5.5 µM | RPMI-8226 7.18 µM | SNB-75 11.1 µM | SF-295 11.7 µM | NCI-H460 4.61 µM | UACC-257 12.2 µM | OVCAR-4 15.2 µM | SK-MEL-5 14.9 µM | SF-539 11.5 µM | UO-31 5.22 µM | TK-10 10.9 µM | K562 8.61 µM | OVCAR-5 20.3 µM

Cc1ccc(C2=Nc3ccccc3NC(=O)C2)cc1
inactive: SF-268 > 100 µM | NCI-H226 12.7 µM | HOP-92 26.9 µM | SNB-75 43.8 µM | SF-295 > 100 µM | NCI-H460 > 100 µM | UACC-257 > 100 µM | OVCAR-4 > 100 µM | SK-MEL-5 > 100 µM | SF-539 > 100 µM | UO-31 > 100 µM | TK-10 > 100 µM | K562 > 100 µM | SK-OV-3 > 100 µM | OVCAR-5 > 100 µM | RXF 393 > 100 µM

CC1(C)C(=O)OC(n2cc(F)c(=O)[nH]c2=O)C1=O (centres undefined)
inactive: SF-268 > 100 µM | NCI-H226 > 100 µM | HOP-92 26.5 µM | RPMI-8226 > 100 µM | SNB-75 > 100 µM | SF-295 > 100 µM | NCI-H460 55.1 µM | UACC-257 > 100 µM | OVCAR-4 > 100 µM | SF-539 43.9 µM | UO-31 > 100 µM | TK-10 > 100 µM | K562 > 100 µM | SK-OV-3 > 100 µM | OVCAR-5 > 100 µM | RXF 393 > 100 µM

CC1CC2OC(=O)CC2C[C@@H]1O[Si](C)(C)C(C)(C)C (some centres undefined)
inactive: SF-268 64.4 µM | HOP-92 3.68 µM | RPMI-8226 21.7 µM | SNB-75 51.4 µM | SF-295 58.7 µM | NCI-H460 75.7 µM | UACC-257 61.8 µM | OVCAR-4 61 µM | SK-MEL-5 27 µM | SF-539 > 100 µM | UO-31 57.7 µM | TK-10 > 100 µM | K562 36.1 µM | SK-OV-3 > 100 µM | OVCAR-5 > 100 µM

CCC1=CCN(c2cc(C)ccn2)OC1c1ccccc1 (centres undefined)
inactive: SF-268 86.5 µM | NCI-H226 > 100 µM | RPMI-8226 19.1 µM | SNB-75 45.6 µM | SF-295 39.3 µM | NCI-H460 38.4 µM | UACC-257 33.3 µM | OVCAR-4 59.8 µM | SF-539 > 100 µM | UO-31 50 µM | K562 47.4 µM | SK-OV-3 71.3 µM | OVCAR-5 > 100 µM | RXF 393 29.3 µM

COc1ccc(-c2cc(O)c3cc4c(cc3n2)OCO4)cc1
inactive: SF-268 > 100 µM | NCI-H226 29 µM | RPMI-8226 > 100 µM | SNB-75 29.8 µM | SF-295 63.4 µM | NCI-H460 > 100 µM | UACC-257 > 100 µM | OVCAR-4 > 100 µM | SK-MEL-5 > 100 µM | SF-539 > 100 µM | UO-31 > 100 µM | TK-10 > 100 µM | K562 > 100 µM | RXF 393 38.4 µM

C=CCCOC(=O)CO[N+](=O)[O-]
inactive: SF-268 > 100 µM | NCI-H226 > 100 µM | RPMI-8226 > 100 µM | SNB-75 > 100 µM | SF-295 > 100 µM | NCI-H460 > 100 µM | UACC-257 > 100 µM | OVCAR-4 > 100 µM | SF-539 > 100 µM | UO-31 > 100 µM | TK-10 > 100 µM | K562 > 100 µM | SK-OV-3 > 100 µM | OVCAR-5 > 100 µM | RXF 393 > 100 µM

COC(=O)C(Cc1nc2ccccc2nc1O)/C(=N\NC(C)(C)C)C(=O)Nc1c(C)cc(Br)cc1C (centres undefined)
inactive: SF-268 22.3 µM | NCI-H226 17.6 µM | HOP-92 18.7 µM | RPMI-8226 35.2 µM | SF-295 35.3 µM | NCI-H460 30.1 µM | UACC-257 33.9 µM | OVCAR-4 34.8 µM | SK-MEL-5 18.3 µM | SF-539 19.9 µM | UO-31 50.4 µM | K562 29.4 µM | SK-OV-3 50.5 µM | OVCAR-5 > 100 µM

CO/N=C/c1cc(OC)c(OC)c(OC)c1
inactive: SF-268 > 100 µM | NCI-H226 > 100 µM | HOP-92 > 100 µM | RPMI-8226 > 100 µM | SNB-75 > 100 µM | SF-295 > 100 µM | NCI-H460 > 100 µM | UACC-257 > 100 µM | OVCAR-4 > 100 µM | SK-MEL-5 > 100 µM | SF-539 > 100 µM | UO-31 > 100 µM | TK-10 > 100 µM | K562 > 100 µM | SK-OV-3 > 100 µM | OVCAR-5 > 100 µM

C=CC1[C@H]2COC(C)(C)O[C@@H]2CC(=O)C1(C)C (some centres undefined)
inactive: SF-268 > 100 µM | NCI-H226 > 100 µM | HOP-92 > 100 µM | SNB-75 > 100 µM | SF-295 > 100 µM | NCI-H460 > 100 µM | UACC-257 > 100 µM | OVCAR-4 > 100 µM | SF-539 > 100 µM | UO-31 > 100 µM | TK-10 > 100 µM | OVCAR-5 > 100 µM | RXF 393 94.8 µM

COc1ccc(/C=C2\Cc3ccccc3C2=O)cc1OC
inactive: SF-268 45.3 µM | RPMI-8226 > 100 µM | SNB-75 > 10 µM | SF-295 60.8 µM | NCI-H460 > 100 µM | UACC-257 > 100 µM | OVCAR-4 > 100 µM | SK-MEL-5 63.4 µM | UO-31 39.7 µM | TK-10 > 100 µM | K562 > 100 µM | SK-OV-3 > 100 µM | OVCAR-5 > 100 µM

NC1=NC(c2ccccc2)CC(c2cc(Cl)ccc2O)=N1 (centres undefined)
inactive: SF-268 16 µM | NCI-H226 21.2 µM | HOP-92 19.1 µM | RPMI-8226 15.2 µM | SNB-75 17.7 µM | SF-295 17.3 µM | NCI-H460 15.5 µM | UACC-257 19.9 µM | OVCAR-4 17.9 µM | SF-539 15 µM | UO-31 15.2 µM | TK-10 25.1 µM | K562 10.1 µM | SK-OV-3 17.9 µM | OVCAR-5 19.9 µM | RXF 393 17.3 µM

Nc1nc(N)c(CCCCc2ccccc2)c(C=O)n1
inactive: SF-268 18.8 µM | NCI-H226 19.4 µM | RPMI-8226 13.2 µM | SNB-75 12.7 µM | SF-295 22 µM | NCI-H460 42.1 µM | UACC-257 13.6 µM | OVCAR-4 23.9 µM | SK-MEL-5 17 µM | SF-539 18.9 µM | UO-31 19.1 µM | TK-10 27.6 µM | K562 5.81 µM | SK-OV-3 31.1 µM | OVCAR-5 > 100 µM

C=C1C(=O)O[C@H]2C[C@@H](C)[C@@H]3CC(=O)OC[C@@]3(C)CC12 (some centres undefined)
inactive: SF-268 27.4 µM | HOP-92 16.1 µM | RPMI-8226 21.4 µM | SNB-75 30.1 µM | SF-295 21.6 µM | NCI-H460 18.8 µM | OVCAR-4 22.8 µM | SK-MEL-5 34.3 µM | SF-539 21.9 µM | UO-31 49.1 µM | TK-10 22.8 µM | K562 17.5 µM | SK-OV-3 97.7 µM

CSC1NC=Nc2c1sc(=S)n2-c1ccccc1 (centres undefined)
inactive: SF-268 > 100 µM | NCI-H226 > 100 µM | HOP-92 83.8 µM | RPMI-8226 > 100 µM | SNB-75 28.4 µM | SF-295 > 100 µM | NCI-H460 > 100 µM | UACC-257 > 100 µM | OVCAR-4 89.1 µM | SK-MEL-5 > 100 µM | SF-539 > 100 µM | UO-31 > 100 µM | TK-10 > 100 µM | SK-OV-3 > 100 µM | OVCAR-5 > 100 µM | RXF 393 > 100 µM

CC(C)=CCC/C(C)=C/CC/C(C)=C/CCC1(C)CCC([C@H](C)C(=O)O)OO1.CC1=C(CC/C(C)=C/CCC2(C)CCC([C@H](C)C(=O)O)OO2)C(C)(C)CCC1 (some centres undefined)
inactive: SF-268 > 100 µM | NCI-H226 > 100 µM | HOP-92 > 100 µM | SNB-75 > 100 µM | SF-295 > 100 µM | NCI-H460 > 100 µM | UACC-257 > 100 µM | OVCAR-4 > 100 µM | SF-539 > 100 µM | UO-31 > 100 µM | TK-10 > 100 µM | OVCAR-5 > 100 µM | RXF 393 > 100 µM

CCOC(=O)[C@H](Cc1ccccc1)NC(=O)c1nc[nH]c1[N+](=O)[O-]
inactive: SF-268 > 100 µM | NCI-H226 > 100 µM | RPMI-8226 > 100 µM | SNB-75 > 100 µM | SF-295 > 100 µM | NCI-H460 > 100 µM | UACC-257 > 100 µM | OVCAR-4 > 100 µM | SK-MEL-5 > 100 µM | SF-539 > 100 µM | UO-31 > 100 µM | TK-10 > 100 µM | K562 > 100 µM | SK-OV-3 > 100 µM

CC(=O)Oc1ccc(CO)cc1OC(C)=O
inactive: SF-268 > 100 µM | NCI-H226 > 100 µM | HOP-92 > 100 µM | RPMI-8226 51.6 µM | SNB-75 > 100 µM | SF-295 > 100 µM | NCI-H460 > 100 µM | UACC-257 > 100 µM | OVCAR-4 > 100 µM | SK-MEL-5 > 100 µM | UO-31 > 100 µM | TK-10 > 100 µM | K562 57.8 µM | SK-OV-3 > 100 µM | OVCAR-5 > 100 µM | RXF 393 > 100 µM
